Source: publication PMC7936488, “An efficient system for intestinal on-site butyrate production using novel microbiome-derived esterases” (Journal of Biological Engineering, 2021)

Assays:
[1] = biological target: T1, LL_Tbe (Lactococcus lactis, UniProt Q9L9X0); assay: p-nitrophenol release at […] nm, E. coli tEc cells expressing the gene vs empty vector; format: cell-based; details: whole-cell culture aliquot, 5 min
T1 construct: gene estA; gene in pBAD24 under tbe1 promoter, E. coli tEc cells, not purified
T1 sequence (Q9L9X0 1-258): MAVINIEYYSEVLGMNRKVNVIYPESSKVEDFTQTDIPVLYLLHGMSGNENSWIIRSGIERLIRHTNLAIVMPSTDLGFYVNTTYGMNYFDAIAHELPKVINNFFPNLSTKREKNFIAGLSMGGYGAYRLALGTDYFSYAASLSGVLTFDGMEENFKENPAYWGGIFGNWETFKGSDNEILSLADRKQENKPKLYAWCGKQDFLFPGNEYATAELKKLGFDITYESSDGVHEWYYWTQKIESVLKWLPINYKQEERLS

[2] = biological target: T2, SP_Est (Streptococcus pneumoniae, UniProt A0A0H2UNZ8); assay: as above; format: cell-based; details: whole-cell culture aliquot, 5 min
T2 construct: gene estA; gene in pBAD24 under tbe1 promoter, E. coli tEc cells, not purified
T2 sequence (A0A0H2UNZ8 1-259): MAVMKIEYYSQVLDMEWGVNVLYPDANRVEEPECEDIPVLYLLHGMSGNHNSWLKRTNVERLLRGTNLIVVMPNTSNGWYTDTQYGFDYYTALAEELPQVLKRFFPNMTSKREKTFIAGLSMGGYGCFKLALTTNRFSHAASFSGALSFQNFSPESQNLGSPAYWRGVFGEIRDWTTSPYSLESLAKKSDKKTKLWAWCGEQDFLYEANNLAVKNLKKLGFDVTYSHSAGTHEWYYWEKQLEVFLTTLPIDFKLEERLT

Structure (SMILES): CCCC(=O)Oc1ccc([N+](=O)[O-])cc1 [4-nitrophenyl butyrate]
- p-nitrophenol release at 400 nm, E. coli tEc cells expressing the gene vs empty [1]: Tbe1 demonstrated almost identical activity to the L. lactis enzyme
- p-nitrophenol release at 400 nm, E. coli tEc cells expressing the gene vs empty [2]: the esterase of S. pneumoniae was the most potent among the four tested enzymes
